Values of other authors in patent US12390475B2, “Dry powder treprostinil for the treatment of pulmonary hypertension” (priority 2016, dated 2025).
Read-outs that look alike come from different tables or passages of the source.

Legend:
[1] = aqueous titration with 20% ethanol as a co-solvent
[2] = various buffer solutions at various pH levels, octanol

In the case of CCCCC[C@H](O)CC[C@@H]1[C@H]2Cc3cccc(OCC(=O)[O-])c3C[C@H]2C[C@H]1O.[Na+] [Treprostinil sodium], the solubility (in acetone) is given as “very slightly soluble”, the solubility (in acetonitrile) is given as “practically insoluble” and the solubility (in ethanol) is given as “very soluble”. For the same molecule, the solubility (in ethyl acetate) was “practically insoluble”, the solubility (in n-hexane) was “practically insoluble” and the solubility (in water) was “very soluble”.
For CCCCC[C@H](O)CC[C@@H]1[C@H]2Cc3cccc(OCC(=O)O)c3C[C@H]2C[C@H]1O [Treprostinil, 2-[[(1R,2R,3aS,9aS)-2-hydroxy-1-[(3S)-3-hydroxyoctyl]-2,3,3a,4,9,9a-hexahydro-1H-cyclopenta[g]naphthalen-5-yl]oxy]acetic acid], the pKa [1] is listed as 4.5, the distribution coefficient [2] is listed as “distribution into octanol layers at all pH levels” and the solubility (unbuffered water and low pH buffers) is listed as “poorly soluble”.
